# Experimental data published in article doi:10.1101/2023.09.01.555951v1 (biorxiv, 2023).
# Where a chain is given by its changes, count along the chain named.
# How the values were obtained:
# [1] = molecular target: T1, OpuAC (isolated SBD of OpuA) (Lactococcus lactis, UniProt Q7DAU8); test: intrinsic tryptophan fluorescence titration; assay type: binding
# T1 sequence (Q7DAU8 319-573): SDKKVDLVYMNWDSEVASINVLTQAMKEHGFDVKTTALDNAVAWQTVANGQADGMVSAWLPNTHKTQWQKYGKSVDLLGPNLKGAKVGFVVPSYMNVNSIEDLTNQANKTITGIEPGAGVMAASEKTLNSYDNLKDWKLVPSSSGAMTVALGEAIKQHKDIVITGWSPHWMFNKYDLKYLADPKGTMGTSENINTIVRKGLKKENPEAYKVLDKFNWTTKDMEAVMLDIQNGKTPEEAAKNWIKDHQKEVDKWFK
# [2] = molecular target: T2, OpuAC (isolated SBD of OpuA) (Lactococcus lactis, UniProt Q7DAU8, K521C/S319C); test: intrinsic tryptophan fluorescence titration; assay type: binding
# T2 sequence (Q7DAU8 319-573 S319C/K521C): T1 sequence (Q7DAU8 319-573) with S1C, K203C
smiles,measurement,setting,value
C[N+](C)(C)CC(=O)[O-] [glycine betaine],Kd,[1],4.4 ± 0.1 µM
same,Kd,[2],4.3 ± 0.4 µM
